Source: US20030073218A1, “High affinity inhibitors for target validation and uses thereof” (Princeton University, priority 1999, published 2003)

Assays:
WT v-Src = target: T1, WT v-Src (Rous sarcoma virus subgroup A, UniProt P00524, DEL77-225); test: biochemical; assay type: biochemical; conditions: Table 3, wild type; read-out: IC50, vSrc
T1 construct: mutant of the v-Src catalytic domain, (the XD4 fragment) were made as glutathione S-transferase (GST) fusion proteins; made in house; host or cells: E. coli (DH5a), pGEX-KT

[1] = test system: wild-type Fus3 expressing yeast; test: Yeast mating assay for Fus3 function; assay type: cell-based, Saccharomyces cerevisiae; conditions: all concentrations up to 50 μM
[2] = test system: panel of wild-type protein kinases (v-src, Fyn, c-Abl, CAMK IIα, CDK2); test: In vitro inhibition, panel of wild-type protein kinases; assay type: biochemical
[3] = test system: S. cerevisiae expressing wild-type Fus3, Fus3-as1, or no Fus3; test: Non-selective cytotoxicity control, mating cultures plated on YPD; assay type: cell-based, Saccharomyces cerevisiae; conditions: any of the three strains
cdc28-as1 cells [4] = test: DNA content (flow cytometry) and morphology of yeast cells; assay type: cell-based, Saccharomyces cerevisiae; conditions: for cell cycle effect (G2/M DNA content, large hyperpolarized buds): asynchronous cells
Method: DNA flow cytometry: Approximately 1×10^7 cells for each sample were fixed in 70% ethanol, resuspended in 50 mM Tris-HCl pH 8.0, briefly sonicated, digested with 2mg/ml RNase for 2 hours at 37° C., and resuspended in 0.2 ml protease solution (5 mg/ml pepsin. 0.5% concentrated HCl ) and digested for 45 minutes at 37° C. DNA was stained with 1μM Sytox Green (Molecular Probes) in 50 mM Tris-HCl pH 7.5 and 20,000 cells from each sample were scanned with a FACScan FACS machine (Becton-Dickinson).
Thus, it appears possible to titrate the level of Cdc28-as1 activity in vivo, allowing the identification of cell cycle events that are differentially sensitive to decreases in the catalytic activity of Cdc28.
When cdc28-as1 cells were synchronized in G1 with the yeast mating pheromone, α-factor factor, and then released into fresh media containing 500 nM 1-NM-PP 1, initiation of budding and DNA synthesis were delayed about 30 to 60 minutes, while accumulation of the mitotic cyclin Clb2 was delayed 60 to 90 minutes. […] Thus, cells treated with low concentrations of the inhibitor are slightly delayed during progression through early stages of the cell cycle, but eventually arrest due to a failure to assemble a mitotic spindle and enter mitosis.
These cells eventually budded after 180 to 240 minutes and arrested with a IC DNA content, large hyperpolarized buds, a single DNA mass in the mother cell, and an interphase astral microtubule array.

Cdc28-as1 (F88G Cdc28) = target: T2, Cdc28-as1 (F88G Cdc28) (Saccharomyces cerevisiae, UniProt P00546, F88G); test: In vitro sensitivity of Cdc28 kinases to PP1 derivatives (Example 19); assay type: biochemical; conditions: read-out: IC50, engineered Cdc28
T2 construct: made in house

cdc28-as1 strain = test: Yeast growth; assay type: cell-based, Saccharomyces cerevisiae
Method: (§1) Yeast Plasmid and Strain Construction: Media and genetic and microbial techniques were essentially as described (148, 153). All strains were derivatives of W30-3 (ura3-a, leu2-3, 112, trpl-1, his3-11,15, ade2-1, can1-100, GAL+). All strains were grown at 23° C. unless otherwise noted. To create cdc28-as1, the CDC28 coding sequence and 400 bp of 5′-and 386 bp of 3′-flanking DNA was PCR-amplified from genomic DNA and ligated into pRS306 to make pJAU1. The F88G mutation was engineered by oligonucleotide-directed mutagenesis of pJAU1. The plasmid was integrated into the wild-type CDC28 locus following AflII digestion by a pop-in-pop-out strategy as described (148, 153).
as §1, with “To examine the function of Cdc28 in vivo, a yeast strain in which the wild-type copy of CDC28 was replaced by cdc28-as1 was constructed.” for “Yeast Plasmid and Strain Construction:”, “W303 (ura3-1,” for “W30-3 (ura3-a,”, “cdc28-as1 ,” for “cdc28-as1,”, “5′- and” for “5′-and”, “AfII” for “AflII”

wild-type strain (CDC28) = test: Yeast growth; assay type: cell-based, Saccharomyces cerevisiae
Method: as §1
as §1, with “To examine the function of Cdc28 in vivo, a yeast strain in which the wild-type copy of CDC28 was replaced by cdc28-as1 was constructed.” for “Yeast Plasmid and Strain Construction:”, “W303 (ura3-1,” for “W30-3 (ura3-a,”, “cdc28-as1 ,” for “cdc28-as1,”, “5′- and” for “5′-and”, “AfII” for “AflII”

wild-type cells = test: Genome-wide transcription, oligonucleotide DNA arrays; assay type: cell-based, Saccharomyces cerevisiae
Excerpt: (§2) Error bars represent standard errors of the means.
(§3) Changes were deemed significant if they were greater than or equal to 2-fold or if the transcript changed present/absent status (as indicated by Affymetrix software) in the following comparisons: for non-specific drug effects: CDC28+1-NM-PP1 vs. CDC28; for cdc28-as1 effects: cdc28-as1 vs. CDC28.

cdc28-as1 cells [5] = test: as above; assay type: cell-based, Saccharomyces cerevisiae
Excerpt: as §2, §3

[6] = test system: I338G v-Src, T339G Fyn, T315A Abl, F89G CAMK IIα and F80G CDK2; test: In vitro inhibition, panel of engineered protein kinases; assay type: biochemical
Cdc28-as1 · MBP-Clb2 = target: T3, Cdc28-as1 · MBP-Clb2 (Saccharomyces cerevisiae, UniProt P00546, F88G); test: 1-NM-PP1 IC50, Histone H1 kinase assay; assay type: biochemical; conditions: 1 MM ATP
T3 construct: made in house; host or cells: Sf9 insect cells, baculovirus, co-infected with Cak1-HA3 (Cdc28-as1-His6); bacteria (MBP-Clb2)
Method: Phosphate incorporation was determined at each inhibitor concentration by scintillation counting.
Cdc28-as1 is highly sensitive to 1-NM-PP1 in vitro and is a slightly weakened kinase.

[7] = test system: Fus3-as1 expressing yeast; test: Yeast mating assay for Fus3 function; assay type: cell-based, Saccharomyces cerevisiae; conditions: 50 μM
I338G v-Src = target: T4, I338G v-Src (Rous sarcoma virus subgroup A, UniProt P00524, DEL77-225/I338G); test: biochemical; assay type: biochemical; conditions: Table 3; read-out: IC50, 1338G v-Src
T4 construct: screened against the catalytic domain of the target kinase, I338G v-Src; made in house; host or cells: E. coli DH5a, pGEX-KT

[8] = test system: cdc28-as1 strain lacking PCL1 and PCL2; test: Budding and DNA content after release from G1; assay type: cell-based, Saccharomyces cerevisiae; conditions: G1 synchronized, released into 5,000 nM
Method: Pho85, a Cdk that is closely related to Cdc28, has been implicated in the initiation of budding in S. cerevisiae (128, 129). Therefore, the budding observed in cdc28-as1 cells released into 5,000 nM 1-NM-PP1 due to residual Cdc28-as1 activity or due to Pho85 activity was investigated. A cdc28-as1 strain lacking PCL1 and PCL2, which encode the two G1 activating cyclins of Pho85 were constructed. […] It was concluded that Pc11- and Pc12-associated Pho85 activity, and not residual Cdc28 activity, are responsible for the greatly delayed budding observed in cdc28-as1 cells treated with high concentrations of inhibitor.

[9] = test system: Trk family tyrosin kinases; conditions: reported (89, 90); cited from earlier work
wild-type c-Abl = target: T5, wild-type c-Abl (Homo sapiens, UniProt P00519); test: In vitro inhibition by K252a; assay type: biochemical
T5 construct: GST; made in house

protein kinase A = protein kinase A (Homo sapiens, UniProt P17612); conditions: reported (89, 90); cited from earlier work
[10] = target: cGMP dependent protein kinase; conditions: reported (89, 90); cited from earlier work
[11] = G1 synchronized with α-factor, released into 500 nM
[12] = G1 synchronized, released into 5,000 nM

T3 sequence (P00546 whole entry F88G): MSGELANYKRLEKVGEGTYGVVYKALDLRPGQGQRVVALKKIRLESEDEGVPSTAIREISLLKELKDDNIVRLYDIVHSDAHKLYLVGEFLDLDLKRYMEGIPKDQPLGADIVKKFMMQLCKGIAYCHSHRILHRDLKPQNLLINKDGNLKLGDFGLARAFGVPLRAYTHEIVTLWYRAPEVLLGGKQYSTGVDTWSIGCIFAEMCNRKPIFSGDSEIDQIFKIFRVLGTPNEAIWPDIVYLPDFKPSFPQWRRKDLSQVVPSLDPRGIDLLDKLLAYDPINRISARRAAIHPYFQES
T3 sequence (P24869 whole entry, further chain): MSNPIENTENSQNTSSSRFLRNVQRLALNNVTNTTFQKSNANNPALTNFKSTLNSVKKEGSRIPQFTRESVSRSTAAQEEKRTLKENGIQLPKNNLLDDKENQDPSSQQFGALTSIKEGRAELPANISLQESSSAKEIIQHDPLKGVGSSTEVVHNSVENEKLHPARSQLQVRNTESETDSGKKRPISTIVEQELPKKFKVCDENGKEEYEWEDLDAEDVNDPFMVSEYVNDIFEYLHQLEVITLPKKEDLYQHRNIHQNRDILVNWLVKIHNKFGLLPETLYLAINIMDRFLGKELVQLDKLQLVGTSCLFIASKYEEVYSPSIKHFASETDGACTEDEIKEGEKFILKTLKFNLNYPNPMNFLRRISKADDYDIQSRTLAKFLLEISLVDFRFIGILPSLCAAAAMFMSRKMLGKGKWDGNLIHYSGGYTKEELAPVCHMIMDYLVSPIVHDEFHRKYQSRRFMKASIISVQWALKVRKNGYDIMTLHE
T2 sequence (P00546 whole entry F88G): as the sequence (P00546 whole entry F88G) above
T2 sequence (P24869 whole entry, further chain): as the sequence (P24869 whole entry, further chain) above
T5 sequence (P00519 whole entry): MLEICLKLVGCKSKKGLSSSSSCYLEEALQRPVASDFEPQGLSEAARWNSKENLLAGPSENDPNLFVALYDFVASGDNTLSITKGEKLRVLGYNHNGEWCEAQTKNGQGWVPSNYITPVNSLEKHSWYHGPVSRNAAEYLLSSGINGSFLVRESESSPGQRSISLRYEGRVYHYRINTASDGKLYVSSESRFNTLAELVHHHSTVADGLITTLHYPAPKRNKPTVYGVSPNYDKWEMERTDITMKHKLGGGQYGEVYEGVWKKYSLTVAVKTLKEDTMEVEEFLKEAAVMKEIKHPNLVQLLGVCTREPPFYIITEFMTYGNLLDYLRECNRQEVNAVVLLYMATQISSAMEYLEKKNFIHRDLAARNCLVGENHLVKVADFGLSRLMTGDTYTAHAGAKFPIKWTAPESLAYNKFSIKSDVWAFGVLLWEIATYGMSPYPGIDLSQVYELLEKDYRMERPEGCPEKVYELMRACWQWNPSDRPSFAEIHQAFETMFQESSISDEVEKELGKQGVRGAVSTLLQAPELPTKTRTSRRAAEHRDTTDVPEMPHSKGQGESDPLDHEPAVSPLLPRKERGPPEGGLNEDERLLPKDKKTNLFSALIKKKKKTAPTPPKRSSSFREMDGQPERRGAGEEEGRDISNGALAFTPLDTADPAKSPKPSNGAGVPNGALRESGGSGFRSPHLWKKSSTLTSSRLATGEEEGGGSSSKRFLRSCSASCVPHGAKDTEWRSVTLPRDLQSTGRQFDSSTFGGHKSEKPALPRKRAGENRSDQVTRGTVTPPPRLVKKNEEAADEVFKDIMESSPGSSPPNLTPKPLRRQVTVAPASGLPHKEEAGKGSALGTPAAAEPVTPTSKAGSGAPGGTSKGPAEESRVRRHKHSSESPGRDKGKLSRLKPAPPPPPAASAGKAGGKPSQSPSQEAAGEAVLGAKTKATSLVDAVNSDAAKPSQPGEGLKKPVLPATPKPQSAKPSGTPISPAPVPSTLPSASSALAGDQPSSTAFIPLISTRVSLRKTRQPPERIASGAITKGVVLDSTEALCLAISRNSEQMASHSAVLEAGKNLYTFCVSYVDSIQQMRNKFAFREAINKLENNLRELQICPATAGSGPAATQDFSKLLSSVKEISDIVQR

With `CC(C)(C)n1nc(Cc2cccc3ccccc23)c2c(N)ncnc21` [Compound 6h, 4-amino-1-(tert-butyl)-3-(1′-naphthylmethyl)pyrazolo[3,4-d]pyrimidine] the IC50 (WT v-Src) was 28000 nM, the mating efficiency [1] was “no decrease in mating efficiency” and the “concentration at which wild-type kinases are inhibited” value ([2]; none inhibited below this concentration) was ≥ 1 µM. The “cfu/mL on YPD plates (non-selective cytotoxicity)” value [3] was “No significant decrease in cfu/mL on YPD plates”, the “delay of accumulation of the mitotic cyclin Clb2” value (cdc28-as1 cells [4]; [11]) was 60 to 90 min and the “delay of initiation of budding and DNA synthesis” value (cdc28-as1 cells [4]; [11]) was 30 to 60 min. For the same compound, the terminal arrest phenotype (cdc28-as1 cells [4]; G1 synchronized, released into 500 nM) was “arrest with moderate Clb2 levels, highly hyperpolarized buds, and a G2M DNA content”, the arrest phenotype (cdc28-as1 cells [4]; [12]) was “arrested with a IC DNA content and initially failed to bud” and the “time after which cells eventually budded” value (cdc28-as1 cells [4]; [12]) was 180 to 240 min. For the same compound, the “cell cycle effect (G2/M DNA content, large hyperpolarized buds)” value (cdc28-as1 cells [4]; 50 nM) was “delay”, the “cell cycle effect (G2/M DNA content, large hyperpolarized buds)” value (cdc28-as1 cells [4]; 500 nM) was “arrest” and the cell cycle effect (cdc28-as1 cells [4]; asynchronous cells, 5,000 nM) was “non-uniform arrest that included unbudded GI cells as well as large-budded G2/M cells”. The IC50 (Cdc28-as1 (F88G Cdc28)) was 3.9 nM, the “growth of yeast which express Cdc28-as1” value (cdc28-as1 strain) was “completely ablated” and the “inhibitor concentration for complete growth arrest” value (cdc28-as1 strain) was “above 500 nM”. For the same compound, the IC50 (cdc28-as1 strain; in vivo, read-out: inhibitor concentration at which growth is inhibited 50%) was 50 to 100 nM, the “proliferation of wild-type cells” value (wild-type strain (CDC28)) was “unaffected by the inhibitor except at very high concentrations” and the “growth of wild-type strains” value (wild-type strain (CDC28); same concentrations) was “had no effect on the growth of wild-type strains”. The “effects on wild-type cell physiology” value (wild-type cells; 500 nM) was “has no significant effects on wild-type cell physiology”, the “number of genes whose transcription changed greater than two-fold” value (wild-type cells; 500 nM, 30 minutes) was 6 genes and the “share of genes whose transcription changed greater than two-fold” value (wild-type cells; 500 nM, 30 minutes) was 0.1%. For the same compound, the “number of genes changed” value (wild-type cells; 120 minutes) was 3 genes, the G2/M transcription (cdc28-as1 cells [5]; 500 nM, 120 minutes) was “causes a drop in G2/M transcription” and the “down-regulated transcripts that are cell cycle-regulated” value (cdc28-as1 cells [5]; 500 nM, two hours) was 60 transcripts. For the same compound, the “down-regulated transcripts with peak expression at G2/M” value (cdc28-as1 cells [5]; 500 nM, two hours) was 32 transcripts, the “number of genes with […] or greater decreases” value (cdc28-as1 cells [5]; 500 nM, two hours) was 66 genes and the “number of genes with […] or greater increases” value (cdc28-as1 cells [5]; 500 nM, two hours) was 38 genes. For the same compound, the “down-regulation of the Cln-Cdc28 inhibitor Far 1 transcript” value (cdc28-as1 cells [5]; two-hour drug exposure) was 20 fold, the “inhibition of engineered kinases (in words)” value [6] was “the most potent inhibitor of every engineered kinase tested” and the IC50 ([6]; within a 3 fold range, read-out: IC50 for all of the glycine mutants) was < 10 nM. The IC50 (Cdc28-as1 · MBP-Clb2) was ~3 nM, the “decrease of Fus3-as1 mediated mating” value [7] was 85 fold and the IC50 (I338G v-Src) was 4.2 nM. The arrest phenotype [8] was “arrested with a 1C DNA content and never budded, even after 6 hours”.

In the case of `COC(=O)[C@@]1(O)C[C@H]2O[C@]1(C)n1c3ccccc3c3c4c(c5c6ccccc6n2c5c31)C(=O)NC4` [Compound K252a, (+)-K252a], the IC50 [9] is listed as ≤ 30 nM, the “inhibition of wild-type protein kinases (in words)” value [2] is listed as “can efficiently inhibit Src family kinases, cyclin dependent kinases, and calmodulin dependent kinases” and the “inhibition of wild-type Abl” value (wild-type c-Abl) is listed as “not effectively inhibited”. For the same compound, the IC50 (protein kinase A) was ≤ 30 nM and the IC50 [10] was ≤ 30 nM.
